# Results as given in ChEMBL document CHEMBL3885881, “DrugMatrix”.
# Organism: Rattus norvegicus
# Assay type: toxicity, organism-based, Sprague-Dawley
# Conditions: in vivo, po, route oral GAVAGE, vehicle 100 % SALINE; for ABSOLUTE EOSINOPHIL / ABSOLUTE LYMPHOCYTE / ABSOLUTE MONOCYTE / ABSOLUTE SEGMENTED NEUTROPHIL / BASOPHIL / EOSINOPHIL / ERYTHROCYTE COUNT / HEMATOCRIT / HEMOGLOBIN / LEUKOCYTE COUNT / LYMPHOCYTE / MEAN CORPUSCULAR HEMOGLOBIN / MEAN CORPUSCULAR HEMOGLOBIN CONCENTRATION / MONOCYTE / NEUTROPHIL / NUCLEATED RED BLOOD CELLS / PLATELET COUNT: tissue Blood; for ALANINE AMINOTRANSFERASE / ALBUMIN / ALKALINE PHOSPHATASE / ASPARTATE AMINOTRANSFERASE / BLOOD UREA NITROGEN / CARBON DIOXIDE / CHLORIDE / CHOLESTEROL / CREATINE PHOSPHOKINASE / CREATININE / GLUCOSE / LACTATE DEHYDROGENASE / LIPASE / PHOSPHORUS / POTASSIUM / SODIUM / TOTAL BILIRUBIN / TOTAL PROTEIN / URIC ACID: tissue Plasma
# [1] = 700 mg/kg, 24 h, dose level Low, time 1 day
# [2] = 2100 mg/kg, 6 h, dose level High, time 0.25 day
# [3] = 2100 mg/kg, 24 h, dose level High, time 1 day
# Description: DrugMatrix - Regimen: Single
smiles,measurement,setting,value
CN(C)C=O [DIMETHYLFORMAMIDE],ABSOLUTE EOSINOPHIL,[1],0 CELLS/uL
same,ABSOLUTE LYMPHOCYTE,[1],11354.83 CELLS/uL
same,ABSOLUTE MONOCYTE,[1],102.33 CELLS/uL
same,ABSOLUTE SEGMENTED NEUTROPHIL,[1],726.17 CELLS/uL
same,BASOPHIL,[1],0%
same,EOSINOPHIL,[1],0%
same,ERYTHROCYTE COUNT,[1],5.12 x10E6/uL
same,HEMATOCRIT,[1],33.43%
same,HEMOGLOBIN,[1],13.52 G/DL
same,LEUKOCYTE COUNT,[1],12.18 x10E3/uL
same,LYMPHOCYTE,[1],93.17%
same,MEAN CORPUSCULAR HEMOGLOBIN,[1],26.43 pg
same,MEAN CORPUSCULAR HEMOGLOBIN CONCENTRATION,[1],40.52 G/DL
same,MONOCYTE,[1],0.83%
same,NEUTROPHIL,[1],6%
same,NUCLEATED RED BLOOD CELLS,[1],0 /100WBC
same,PLATELET COUNT,[1],1092.67 x10E3/uL
same,ALANINE AMINOTRANSFERASE,[1],23.17 u/L
same,ALBUMIN,[1],4.17 G/DL
same,ALKALINE PHOSPHATASE,[1],336.83 u/L
same,ASPARTATE AMINOTRANSFERASE,[1],50.5 u/L
same,BLOOD UREA NITROGEN,[1],12.5 mg/dL
same,CARBON DIOXIDE,[1],31.17 mmol/L
same,CHLORIDE,[1],96.83 MEQ/L
same,CHOLESTEROL,[1],74.83 mg/dL
same,CREATINE PHOSPHOKINASE,[1],314.83 u/L
same,CREATININE,[1],0.19 mg/dL
same,GLUCOSE,[1],144.5 mg/dL
same,LACTATE DEHYDROGENASE,[1],95 u/L
same,LIPASE,[1],9.67 u/L
same,PHOSPHORUS,[1],10.98 mg/dL
same,POTASSIUM,[1],5.69 MEQ/L
same,SODIUM,[1],142.42 MEQ/L
same,TOTAL BILIRUBIN,[1],0.12 mg/dL
same,TOTAL PROTEIN,[1],6.2 G/DL
same,URIC ACID,[1],0.68 mg/dL
same,ABSOLUTE EOSINOPHIL,[2],125.17 CELLS/uL
same,ABSOLUTE LYMPHOCYTE,[2],14316 CELLS/uL
same,ABSOLUTE MONOCYTE,[2],63 CELLS/uL
same,ABSOLUTE SEGMENTED NEUTROPHIL,[2],1412.5 CELLS/uL
same,BASOPHIL,[2],0%
same,EOSINOPHIL,[2],0.83%
same,ERYTHROCYTE COUNT,[2],5.21 x10E6/uL
same,HEMATOCRIT,[2],35.07%
same,HEMOGLOBIN,[2],12.68 G/DL
same,LEUKOCYTE COUNT,[2],15.92 x10E3/uL
same,LYMPHOCYTE,[2],89.67%
same,MEAN CORPUSCULAR HEMOGLOBIN,[2],24.33 pg
same,MEAN CORPUSCULAR HEMOGLOBIN CONCENTRATION,[2],36.2 G/DL
same,MONOCYTE,[2],0.33%
same,NEUTROPHIL,[2],9.17%
same,NUCLEATED RED BLOOD CELLS,[2],0 /100WBC
same,PLATELET COUNT,[2],1045.5 x10E3/uL
same,ALANINE AMINOTRANSFERASE,[2],61 u/L
same,ALBUMIN,[2],4.12 G/DL
same,ALKALINE PHOSPHATASE,[2],276.83 u/L
same,ASPARTATE AMINOTRANSFERASE,[2],108.5 u/L
same,BLOOD UREA NITROGEN,[2],6.5 mg/dL
same,CARBON DIOXIDE,[2],20.17 mmol/L
same,CHLORIDE,[2],106 MEQ/L
same,CHOLESTEROL,[2],72.83 mg/dL
same,CREATINE PHOSPHOKINASE,[2],210.67 u/L
same,CREATININE,[2],0.24 mg/dL
same,GLUCOSE,[2],180 mg/dL
same,LACTATE DEHYDROGENASE,[2],149.33 u/L
same,LIPASE,[2],8.17 u/L
same,PHOSPHORUS,[2],13.73 mg/dL
same,SODIUM,[2],144.38 MEQ/L
same,TOTAL BILIRUBIN,[2],0.1 mg/dL
same,TOTAL PROTEIN,[2],5.32 G/DL
same,URIC ACID,[2],2.23 mg/dL
same,ABSOLUTE EOSINOPHIL,[3],20.83 CELLS/uL
same,ABSOLUTE LYMPHOCYTE,[3],12212.83 CELLS/uL
same,ABSOLUTE MONOCYTE,[3],201.33 CELLS/uL
same,ABSOLUTE SEGMENTED NEUTROPHIL,[3],481.67 CELLS/uL
same,BASOPHIL,[3],0%
same,EOSINOPHIL,[3],0.17%
same,ERYTHROCYTE COUNT,[3],5.11 x10E6/uL
same,HEMATOCRIT,[3],32.92%
same,HEMOGLOBIN,[3],13.1 G/DL
same,LEUKOCYTE COUNT,[3],12.92 x10E3/uL
same,LYMPHOCYTE,[3],94.67%
same,MEAN CORPUSCULAR HEMOGLOBIN,[3],25.65 pg
same,MEAN CORPUSCULAR HEMOGLOBIN CONCENTRATION,[3],39.83 G/DL
same,MONOCYTE,[3],1.5%
same,NEUTROPHIL,[3],3.67%
same,NUCLEATED RED BLOOD CELLS,[3],0.17 /100WBC
same,PLATELET COUNT,[3],1033.5 x10E3/uL
same,ALANINE AMINOTRANSFERASE,[3],24.17 u/L
same,ALBUMIN,[3],4.07 G/DL
same,ALKALINE PHOSPHATASE,[3],292.33 u/L
same,ASPARTATE AMINOTRANSFERASE,[3],43.17 u/L
same,BLOOD UREA NITROGEN,[3],10.5 mg/dL
same,CARBON DIOXIDE,[3],30.5 mmol/L
same,CHLORIDE,[3],99.17 MEQ/L
same,CHOLESTEROL,[3],80.33 mg/dL
same,CREATINE PHOSPHOKINASE,[3],164.67 u/L
same,CREATININE,[3],0.19 mg/dL
same,GLUCOSE,[3],147.33 mg/dL
same,LACTATE DEHYDROGENASE,[3],73.33 u/L
same,LIPASE,[3],10.33 u/L
same,PHOSPHORUS,[3],10.72 mg/dL
same,POTASSIUM,[3],5.2 MEQ/L
same,SODIUM,[3],143.78 MEQ/L
same,TOTAL BILIRUBIN,[3],0.1 mg/dL
same,TOTAL PROTEIN,[3],5.97 G/DL
same,URIC ACID,[3],0.63 mg/dL
